According to patent US20040022866A1, “Pharmaceutical compositions with antibiotic activity” (ZAMBON GROUP S.P.A., priority 2002, published 2004):

Experiment: DSC measurement of the heat of the degradation reaction of FT
Type: physicochemical
Settings: scanning 10° C./min., mechanic mixture FT 0.02 moles + stabilizer 0.01 moles, 0.05% of water with respect to FT, reduced heat = higher stabilization
Method: The stabilization of FT from the selected stabilizers was evaluated experimentally with the DSC technology.
A mechanic mixture of FT (0.02 moles) with each of the stabilizers (0.01 moles) was admixed with 0.05% of water with respect to FT.
The DCS technology used for each mixture (scanning 10° C./min.) allow to measure the reaction heat which develops after the melting peak of FT, due to the degradation reaction.
A reduced heat development indicates a higher stabilization, the amount of FT being the same.

C[C@@H]1O[C@@H]1P(=O)(O)O.NC(CO)(CO)CO [FT (single substance), Fosfomycin Tromethamol]
reaction heat which develops after the melting peak of FT, due to the degradation reaction: 271.03 ± 16.73 (J/g)
